Reference: patent publication US20260305610A1, “TRIAZOLE COMPOUND, AND PREPARATION METHOD THEREFOR, HERBICIDAL COMPOSITION AND USE THEREOF” (QINGDAO KINGAGROOT CHEMICAL COMPOUND CO., LTD., priority 2023, published 2026)

Experiments:
[1] = system: monocotyledonous and dicotyledonous weeds; experiment: Pre-emergence test experiment (weeds); format: in vivo; set-up: key: 9: completely dead; 8: growth control rate is greater than or equal to 90% and less than 100%; 7: growth control rate is greater than or equal to 80% and less than 90%; 6: growth control rate is greater than or equal to 70% and less than 80%; growth control rate is greater than or equal to 50% and less than 70%; 4: growth control rate is greater than or equal to 30% and less than 50%; growth control rate is greater than or equal to 20% and less than 30%; growth control rate is greater than or equal to 10% and less than 20%; growth control rate is less than 10%; 0: no effect; conditions: 30 g a.i./ha
major crops = experiment: Pre-emergence test experiment (crops); format: in vivo; set-up: key: 9: completely dead; 8: growth control rate is greater than or equal to 90% and less than 100%; 7: growth control rate is greater than or equal to 80% and less than 90%; 6: growth control rate is greater than or equal to 70% and less than 80%; growth control rate is greater than or equal to 50% and less than 70%; 4: growth control rate is greater than or equal to 30% and less than 50%; growth control rate is greater than or equal to 20% and less than 30%; growth control rate is greater than or equal to 10% and less than 20%; growth control rate is less than 10%; 0: no effect; conditions: 30 g a.i./ha

| Structure (SMILES) | Pre-emergence activity level (growth control rate) on Amaranthus retroflexus [1] | Pre-emergence activity level (growth control rate) on Descurainia sophia [1] | Pre-emergence activity level (growth control rate) on Digitaria sanguinalis [1] | Pre-emergence activity level (growth control rate) on Setaria viridis [1] | Pre-emergence activity level (growth control rate) on Solanum nigrum [1] | Pre-emergence activity level (growth control rate) on Veronica [1] | Pre-emergence plant damage level (growth control rate) on Corn (major crops) | Pre-emergence plant damage level (growth control rate) on Cotton (major crops) | Pre-emergence plant damage level (growth control rate) on Soybean (major crops) |
| --- | --- | --- | --- | --- | --- | --- | --- | --- | --- |
| N#Cc1cc(Oc2cccc(C(F)(F)F)c2)nc(-n2cnc(C(F)(F)F)n2)c1 [Compound 2] | 9 | 9 | 8 (growth control rate is greater than or equal to 90% and less than 100%) | 8 (growth control rate is greater than or equal to 90% and less than 100%) | 9 | 9 | 0 | 0 | 0 |
| COc1cc(Oc2cccc(C(F)(F)F)c2)nc(-n2cnc(C(F)(F)F)n2)c1 [Compound 3] | 9 | 9 | 8 (growth control rate is greater than or equal to 90% and less than 100%) | 9 | 9 | 9 | 0 | 0 | 0 |
| Cc1cc(Oc2cccc(C(F)(F)F)c2)nc(-n2cnc(C(F)(F)F)n2)c1 [Compound 5] | 9 | 9 | 9 | 9 | 9 | 9 | 0 | 0 | 0 |
| Cc1cc(Oc2cncc(C(F)(F)F)c2)nc(-n2cnc(C(F)(F)F)n2)c1 [Compound 6] | 9 | 9 | 9 | 9 | 9 | 9 | 0 | 0 | 0 |
| FC(F)(F)c1cccc(Oc2nc(-n3cnc(C(F)(F)F)n3)ccc2Cl)c1 [Compound 7] | 9 | 9 | 8 (growth control rate is greater than or equal to 90% and less than 100%) | 9 |  | 9 | 0 | 0 | 0 |
| Cc1ccc(-n2cnc(C(F)(F)F)n2)nc1Oc1cccc(OC(F)(F)F)c1 [Compound 9] | 9 | 9 | 9 | 9 | 9 | 9 | 0 | 0 | 0 |
| Cc1ccc(-n2cnc(C(F)(F)F)n2)nc1Oc1ccc(F)c(C(F)(F)F)c1 [Compound 10] | 9 | 9 | 9 | 9 | 9 | 9 | 0 | 0 | 0 |
| Cc1ccc(-n2cnc(C(F)F)n2)nc1Oc1cccc(F)c1 [Compound 81] | 9 | 9 |  |  |  | 9 |  |  |  |
| CSc1cc(Oc2cccc(C(F)(F)F)c2)nc(-n2cnc(C(F)(F)F)n2)c1 [Compound 86] |  |  |  |  |  | 9 |  |  |  |
| CSc1cc(Oc2cccc(OC(F)(F)F)c2)nc(-n2cnc(C(F)(F)F)n2)c1 [Compound 87] |  |  |  |  |  | 8 (growth control rate is greater than or equal to 90% and less than 100%) |  |  |  |
| Cc1ccc(-n2cnc(C(F)(F)F)n2)nc1Oc1cccc(C#N)c1 [Compound 88] | 9 |  |  |  | 9 |  |  |  |  |
| CCc1ccc(-n2cnc(C(F)(F)F)n2)nc1Oc1cccc(C#N)c1 [Compound 89] | 9 |  | 9 | 9 |  |  |  |  |  |
| CCc1ccc(-n2cnc(C(F)(F)F)n2)nc1Oc1cncc(C#N)c1 [Compound 94] |  |  |  | 8 (growth control rate is greater than or equal to 90% and less than 100%) |  |  |  |  |  |
| CCc1ccc(-n2cnc(C(F)(F)F)n2)nc1Oc1ccc(F)c(C#N)c1 [Compound 96] | 8 (growth control rate is greater than or equal to 90% and less than 100%) | 9 |  |  |  |  |  |  |  |
| Cc1ccc(-n2cnc(C3CC3)n2)nc1Oc1cccc(C(F)(F)F)c1 [Compound 100] |  |  |  | 9 | 8 (growth control rate is greater than or equal to 90% and less than 100%) |  |  |  |  |
| CSc1cc(Oc2cncc(C(F)(F)F)c2)nc(-n2cnc(C(F)(F)F)n2)c1 [Compound 111] |  | 9 |  | 8 (growth control rate is greater than or equal to 90% and less than 100%) |  |  |  |  |  |
| Cc1cc(Oc2ccc(F)c(C(F)(F)F)c2)nc(-n2cnc(C(F)(F)F)n2)c1 [Compound 120] |  | 9 |  |  |  |  |  |  |  |
| Cc1cc(Oc2cccc(Cl)c2)nc(-n2cnc(C(F)(F)F)n2)c1 [Compound 121] |  | 9 |  |  |  |  |  |  |  |
| Cc1cc(Oc2cccc(OC(F)(F)F)c2)nc(-n2cnc(C(F)(F)F)n2)c1 [Compound 122] | 8 (growth control rate is greater than or equal to 90% and less than 100%) | 9 | 8 (growth control rate is greater than or equal to 90% and less than 100%) | 9 |  | 8 (growth control rate is greater than or equal to 90% and less than 100%) |  |  |  |
| Cc1cc(Oc2ccc(F)c(OC(F)(F)F)c2)nc(-n2cnc(C(F)(F)F)n2)c1 [Compound 123] |  | 9 |  |  |  |  |  |  |  |
| Cc1ccc(-n2cnc(C(F)(F)C(F)(F)F)n2)nc1Oc1cccc(C(F)F)c1 [Compound 125] |  | 9 |  |  | 9 |  |  |  |  |
| Cc1ccc(-n2cnc(C(F)(F)C(F)(F)F)n2)nc1Oc1ccc(F)c(C(F)(F)F)c1 [Compound 126] |  | 9 |  |  | 9 |  |  |  |  |
| Cc1ccc(-n2cnc(C(F)(F)C(F)(F)F)n2)nc1Oc1cccc(OC(F)F)c1 [Compound 127] |  | 9 |  | 8 (growth control rate is greater than or equal to 90% and less than 100%) | 9 |  |  |  |  |
| CCc1ccc(-n2cnc(C(F)F)n2)nc1Oc1cccc(F)c1 [Compound 128] |  |  |  |  | 9 |  |  |  |  |
| CCc1ccc(-n2cnc(C(F)(F)F)n2)nc1Oc1cccc(F)c1 [Compound 129] |  |  | 8 (growth control rate is greater than or equal to 90% and less than 100%) | 9 |  |  |  |  |  |
| CCc1ccc(-n2cnc(C(F)(F)F)n2)nc1Oc1cccc(Cl)c1 [Compound 130] |  | 9 |  |  | 9 |  |  |  |  |
| CCc1ccc(-n2cnc(C(F)F)n2)nc1Oc1cccc(Cl)c1 [Compound 131] |  |  |  |  | 9 |  |  |  |  |
| CCc1ccc(-n2cnc(C(F)(F)F)n2)nc1Oc1cccc(C)c1 [Compound 134] | 8 (growth control rate is greater than or equal to 90% and less than 100%) | 9 | 8 (growth control rate is greater than or equal to 90% and less than 100%) |  |  |  |  |  |  |
| COCc1ccc(-n2cnc(C(F)(F)F)n2)nc1Oc1cccc(F)c1 [Compound 138] |  | 9 |  |  | 9 |  |  |  |  |
